The results in this text go back to patent US20240309365A1, “MODULATING TRANSCRIPTIONAL CONDENSATES” (Whitehead Institute for Biomedical Research, priority 2020, published 2024).

Test [1] has as its system Med19 condensates in mESCs. The test is described as follows: Condensate lifetime in Med19-Halo mESCs by tcPALM. In kind it is cell-based, mouse. Here is the method: (§1) For small molecule inhibition experiments, cells were treated with 100 μM DRB (Sigma), or 1 μM Actinomycin-D (Sigma) in 2i media (detailed above) for 30 minutes, then imaged. For wash-out experiments, media was replaced with fresh 2i media and cells were allowed to recover for 1 hour, then the cells were imaged.
HaloTag was endogenously knocked into 5′-end of Med19 via homology-directed repair (HDR) in mouse embryonic stem cells (R1 mESCs). Three single-guide RNAs (sgRNAs) targeting+/−100 bps from the start codons of Med19 gene were designed using the web-based CRISPR Design tool (http://crispr.mit.edu) and integrated into a Streptococcus pyogenes Cas9 vector (Addgene #62988) for standard CRISPR/Cas9 editing. Single positive colonies were sorted by fluorescence-activated cell sorting (FACS) and validated under the microscope. […]
Photo-activation localization microscopy (PALM) imaging was performed using a Nikon Eclipse Ti microscope with a 100× oil immersion objective (NA 1.40) (Nikon, Tokyo, Japan). […] Med19-Halo cluster lifetimes were calculated as previously described using the qSR software (dark time tolerance=20 frames, min cluster size=50) (Andrews et al., 2018), and a cumulative distribution was generated using Prism software (GraphPad).

Test [2] deals with Med1-GFP condensates in mESCs. The test is described as follows: Condensate size in Med1-GFP mESCs after transcription inhibition. Format: cell-based, mouse. The note with it: 30 minutes; 100 μM DRB or 1 μM Actinomycin-D; 3D super-resolution microscopy. Here is the method: as §1
Cells with endogenously-tagged Med1-GFP (Sabari et al., 2018) were plated on glass-bottom dishes (Mattek) coated with poly-L-ornithine (Sigma) and laminin (ThermoFisher). Mock (DMSO) and treated cells were imaged on a LSM 880 Confocal Microscope with Airyscan to obtain super-resolution z-stacks for at least 8 different fields containing multiple cells. For quantification, a manual threshold was applied equally across all conditions to remove background, and the size of Med1-GFP puncta was quantified in 3D using the 3D object counter plugin (Fiji/ImageJ).

Turning to `OC[C@H]1O[C@@H](n2cnc3cc(Cl)c(Cl)cc32)[C@H](O)[C@@H]1O` [DRB], the “lifetime of Med19 condensates versus mock-treated cells” value in test [1] (100 μM DRB, 30 minutes, tcPALM) is given as “significantly longer lifetimes”. The “lifetime of Med19 condensates after wash with fresh media” value in test [1] (DRB-treated cells washed, 1 hour recovery) was “recovered to those of the mock-treated condition”. For the same molecule, in test [2], the “increase in volume of Med1-GFP condensates” value is on record as about 2 fold.
